# According to US20240376118A1, “BI-FUNCTIONAL COMPOUNDS AND METHODS FOR TARGETED UBIQUITINATION OF ANDROGEN RECEPTOR” (MONTELINO THERAPEUTICS, INC., priority 2021, published 2024):
# pIC50: −log10 of the molar value.
# Test system: 22Rv1-Enz^R human prostate cancer cell line
# Experiment: 22Rv1-Enz^R cell proliferation assay
# Type: cell-based
# Details: 22Rv1-Enz^R cells, 6-day culture, cell media changed every 24 hours, read-out: 22Rv1-Enz^R proliferation assay GIC50 (half maximal growth inhibition constant)
# Protocol: The human prostate cancer cell line, 22Rv1 has been reported to express a high level of AR-V7. According to one procedure, 22Rv1 is seeded at 50,000 cells/well on a 24-well plate in quadruplicate and treated with test compounds in concentrations ranging up to 20 μM for four days. Standard culture media is RPMI-1640 supplemented with 10% fetal bovine serum. The test compound initially is dissolved in DMSO at 50 mM. This stock solution is then diluted as needed for the indicated concentrations. At the end of the four-day period, cells are harvested using 1% trypsin and counted using an automated cell counter.
# Cell Culture. Human CaP cell lines, LNCaP, 22Rv1, VCaP, PC3, and DU145 are obtained from the American Type Culture Collection (ATCC) and maintained in the standard culture media: RPMI-1640 supplemented with 10% fetal bovine serum (FBS). LNCaP, 22Rv1, and VCaP are androgen-responsive cell lines, while PC3 and DU145 are not. To establish SAT resistant CaP cell lines, LNCaP, 22Rv1, and VCaP are treated continuously with 10-50 μM abiraterone, apalutamide, darolutamide, or enzalutamide. After 3-6 months, stable cell lines are established and designated as LNCaP-Abi^R, LNCaP-Apa^R, LNCaP-Daro^R, LNCaP-Enz^R, VCaP-Abi^R, VCaP-Apa^R, VCaP-Daro^R, VCaP-Enz^R, 22Rv1-Abi^R, 22Rv1-Apa^R, 22Rv1-Daro^R and 22Rv1-Enz^R. Unless otherwise specified, the standard culture media for these SAT-resistant cell lines included 10 μM of their respective SAT. For the proteasome inhibitor study, the inhibitors MG132 and Epoxomicin are used. The E3 ligase inhibitors Heclin, Nutlin 3a, Thalidomide, and VH298 are used. Cell lines obtained from ATCC are confirmed by checking their morphology using optical microscopy, establishing baselines for cell proliferation, verifying species of origin using isoenzymology, and characterizing the cell's DNA fingerprint using short tandem repeat (STR) profiling. Mycoplasma contamination is also assessed using a PCR based detection system.
# Selected compounds may be tested in the human prostate cancer cell line, 22Rv1-Enz^R, as described in Geun Taek Lee et al., Molecular Cancer Therapeutics, 20:490-9 (2021). These procedures are similar to that described in Experimental Example 1, above, except that the assay conditions are a 6-day culture with cell media changed every 24 hours.
row,SMILES,pIC50
1,"O=C(COc1c(-c2csc(N3CCOCC3)n2)ccc(F)c1F)NCCCCCCC(=O)N1CCN(c2cc3c(cc2F)C(=O)N(C2CCC(=O)NC2=O)C3=O)CC1 (stereo not drawn) [Example 2, 2-(2,3-difluoro-6-(2-morpholinothiazol-4-yl)phenoxy)-N-(7-(4-(2-(2,6-dioxopiperidin-3-yl)-6-fluoro-1,3-dioxoisoindolin-5-yl)piperazin-1-yl)-7-oxoheptyl)acetamide]",> 5.00
2,"O=C(COc1c(-c2csc(N3CCOCC3)n2)ccc(F)c1F)NCCCCCCCCCCC(=O)N1CCN(c2cc3c(cc2F)C(=O)N(C2CCC(=O)NC2=O)C3=O)CC1 (stereo not drawn) [Example 3, 2-(2,3-difluoro-6-(2-morpholinothiazol-4-yl)phenoxy)-N-(11-(4-(2-(2,6-dioxopiperidin-3-yl)-6-fluoro-1,3-dioxoisoindolin-5-yl)piperazin-1-yl)-11-oxoundecyl)acetamide]",> 5.00
3,"O=C1CCC(N2C(=O)c3cc(F)c(NCCCCOCCOCCOCCOc4c(-c5csc(N6CCOCC6)n5)ccc(F)c4F)cc3C2=O)C(=O)N1 (stereo not drawn) [Example 32, 5-((4-(2-(2-(2-(2,3-difluoro-6-(2-morpholinothiazol-4-yl)phenoxy)ethoxy)ethoxy)ethoxy)butyl)amino)-2-(2,6-dioxopiperidin-3-yl)-6-fluoroisoindoline-1,3-dione]",> 5.00

# Second part, the compound after the results:
row,pIC50,SMILES
1,> 5.00,"O=C(COc1c(-c2csc(N3CCOCC3)n2)ccc(F)c1F)NCCCCC(=O)N1CCN(c2cc3c(cc2F)C(=O)N(C2CCC(=O)NC2=O)C3=O)CC1 (stereo not drawn) [Example 1, 2-(2,3-difluoro-6-(2-morpholinothiazol-4-yl)phenoxy)-N-(5-(4-(2-(2,6-dioxopiperidin-3-yl)-6-fluoro-1,3-dioxoisoindolin-5-yl)piperazin-1-yl)-5-oxopentyl)acetamide]"
2,> 5.00,"O=C1CCC(N2C(=O)c3cc(F)c(N4CCN(CC5CCN(C(=O)COc6c(-c7csc(N8CCOCC8)n7)ccc(F)c6F)CC5)CC4)cc3C2=O)C(=O)N1 (stereo not drawn) [Example 20, 5-(4-((1-(2-(2,3-difluoro-6-(2-morpholinothiazol-4-yl)phenoxy)acetyl)piperidin-4-yl)methyl)piperazin-1-yl)-2-(2,6-dioxopiperidin-3-yl)-6-fluoroisoindoline-1,3-dione]"
3,> 5.00,"O=C(COc1c(-c2csc(N3CCOCC3)n2)ccc(F)c1F)NCCCCCCCCCCNc1cc2c(cc1F)C(=O)N(C1CCC(=O)NC1=O)C2=O (stereo not drawn) [Example 25, 2-(2,3-difluoro-6-(2-morpholinothiazol-4-yl)phenoxy)-N-(10-((2-(2,6-dioxopiperidin-3-yl)-6-fluoro-1,3-dioxoisoindolin-5-yl)amino)decyl)acetamide]"
